Results as given in publication PMC10830462, “Molecular insights into the dynamic modulation of bacterial ClpP function and oligomerization by peptidomimetic boronate compounds” (Scientific Reports, 2024).

How the values were obtained:
Type in all cases: binding
[1] = biological target: T1, SeClpP (ClpP from Staphylococcus epidermidis) (Staphylococcus epidermidis, UniProt Q8CTE0); assay: X-ray crystal structure, soaked crystals, […] Å; details: catalytic site; covalent (boron to Ser98, reversible); crystals soaked with 10 mM ixazomib
T1 construct: codon-optimised ORF in pET28a(+), C-terminal His-tag, expressed in E. coli BL21(DE3) Star; homotetradecamer (about 300 kDa) of two stacked heptameric rings, heptamers also present without glycerol; catalytic triad Ser98, His123, Asp172
T1 sequence (Q8CTE0 1-194): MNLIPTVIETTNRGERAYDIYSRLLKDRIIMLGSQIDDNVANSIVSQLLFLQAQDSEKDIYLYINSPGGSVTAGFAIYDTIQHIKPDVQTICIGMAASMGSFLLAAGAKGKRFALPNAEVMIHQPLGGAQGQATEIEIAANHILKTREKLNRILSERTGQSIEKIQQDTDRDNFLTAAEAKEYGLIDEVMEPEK

[2] = biological target: T1, SeClpP (ClpP from Staphylococcus epidermidis); assay: isothermal titration calorimetry; details: read-out: K (converted)
[3] = biological target: T1, SeClpP (ClpP from Staphylococcus epidermidis); assay: nanoDSF thermal shift; details: 10 µM SeClpP, pH 7.5, 100 mM KCl, 2 mM DTT, no glycerol; covalent (reversible boronate)

With CC(C)C[C@H](NC(=O)CNC(=O)c1cc(Cl)ccc1Cl)B(O)O [ixazomib] the “X-ray crystal structure, soaked crystals, 2.33 Å” value [1] was “the boron atom of ixazomib is covalently bound to Ser98”, the Kd [2] was 5.38 µM and the melting temperature [3] was “SeClpP bound to the peptidomimetic boronate, and therefore more thermostable”.
